How the values were obtained:
[1] = tested on: IL-1β; assay: IL-1β secretion of neutrophils pre-treated with CM of SCP28 cancer cells (ELISA); type: cell-based; settings: human neutrophils pre-treated with CM of SCP28 with CTSC overexpressed; FIG. 7H
Procedure: ELISA kits were used to assay the levels of human IL-1β (88-7621-88, ThermoFisher), mouse IL-1β (432604, Biolegend), mouse IL6 (88-7064-88, ThermoFisher), mouse CCL3 (88-56013-88, ThermoFisher) in cell culture supernatants or sera according to the manufacturer's instruction. Briefly, 96-well MaxiSorp™ ELISA Plates (44-2404, ThermoFisher) was coated with capture antibody overnight at 4° C. in coating buffer (15 mM of Na2CO3, 35 mM of NaHCO3, at pH 9.6). After three washes in PBS, the wells were blocked with 5% BSA in PBS for 45 min at room temperature. Then, 100 μl of cell culture supernatants or sera and standard samples were added into the wells and incubated for 2 h at room temperature, and the plates were washed three times with washing buffer (1% BSA, 0.05% Tween-20 in PBS). Next, biotin-conjugated detection antibody in 2.5% BSA was added into the wells and incubated for 2 h at room temperature. After three washes with washing buffer, HRP-streptavidin was incubated for 45 min at room temperature. Then, signals were detected using TMB solution and read at 450 nm.

[2] = tested on: murine neutrophils; assay: Two-chamber migration of neutrophils recruited by media of neutrophils pre-treated with 4T07 CM; type: cell-based; settings: media of neutrophils pre-treated with CM of 4T07 with CTSC overexpressed; FIG. 7E
Procedure: The procedure of two-chamber migration assays was previously described (Zhuang et al., “Differential effects on lung and bone metastasis of breast cancer by Wnt signalling inhibitor DKK1,” Nat. Cell Biol. 19:1274-1285 (2017)). Briefly, 5×10^5 freshly isolated neutrophils in RPMI 1640 were added to the upper chamber (363096, BD), and a 1:1 mixture of RPMI 1640 and cancer cell CM, or medium from neutrophils cultured in cancer cell CM, was added to the lower chamber as the chemoattractant. The migrated cells in the lower chamber were counted after 3 h.

[3] = tested on: hepatocellular carcinoma cells HUH7; assay: NET-promoted tumor sphere formation, liver cancer; type: cell-based; settings: neutrophil medium, CM with or without brensocatib, FIG. 11N
Procedure: (§1) To test the therapeutic effects of brensocatib in different cancer types in vitro, the ability of brensocatib to inhibit NET-promoted tumor sphere formation is investigated. The neutrophils are cultured with conditioned medium from tumor cells of colon cancer, liver cancer, lung cancer, gastric cancer and pancreatic cancer with or without brensocatib treatment to activate NETosis, and then the neutrophil medium was used in tumor sphere formation of these cancer cells to analyze the effect of neutrophil medium to facilitate tumor cell growth. The amount of tumorsphere in each sample is then determined by imaging.

[4] = tested on: lung cancer cells A549; assay: NET-promoted tumor sphere formation, lung cancer; type: cell-based; settings: neutrophil medium, CM with or without brensocatib, FIG. 11L
Procedure: as §1

[5] = tested on: liver-metastatic breast cancer cell SCP16; assay: Tumor sphere formation of liver-metastatic breast cancer cells in neutrophil medium; type: cell-based; settings: neutrophils cultured with cancer cell CM with or without brensocatib, FIG. 11H
Procedure: (§2) The neutrophils are cultured with conditioned medium from the cancer cells with or without brensocatib treatment to activate NETosis, and then the neutrophil medium was used in tumor sphere formation of bone and liver-metastatic breast cancer cells to analyze the effect of neutrophil medium to facilitate tumor cell growth. The data are shown in FIG. 11E for bone-metastatic breast cancer cell SCP2 and FIG. 11H for liver-metastatic breast cancer cell SCP16.

[6] = tested on: pancreatic cancer cells KP4; assay: NET-promoted tumor sphere formation, pancreatic cancer; type: cell-based; settings: neutrophil medium, CM with or without brensocatib, FIG. 11O
Procedure: as §1

[7] = tested on: 4T1 breast cancer cells; assay: Tumor sphere formation of 4T1 cells in medium of neutrophils pre-treated with 4T1 CM; type: cell-based; settings: 4T1 cells in medium of neutrophils pre-treated with CM of 4T1; vs untreated control; FIG. 10F
[8] = tested on: neutrophils; assay: Neutrophil recruitment by cancer cell conditioned medium (Transwell chambers); type: cell-based, mice; settings: CM of liver-metastatic breast cancer and bone-metastatic lung cancer cells, with or without brensocatib; FIGS. 11G, J
Procedure: To isolate neutrophil from bone marrow, bone marrow cells from 8 to 12-weeks-old BALB/c mice were harvested in sterile Hank's buffered salt solution (HBSS) without Ca^2+/Mg^2+ (14185052, Invitrogen), and laid on top of a 2-layer Percoll (17089102, GE Healthcare) gradient (72% and 63.5% in HBSS), followed by centrifugation at 1,200 g for 30 min at 25° C. Neutrophils enriched in the interface of 63.5%-72% fractions were confirmed to be of >95% purity by flow cytometry analysis. To isolate neutrophils from peripheral blood of mice, whole blood was collected via cardiac puncture (1 ml per animal) and suspended in HBSS (2 ml per animal) with 15 mM EDTA. After centrifugation (400 g, 10 min, 4° C.), white cells were resuspended in 2 ml HBSS with 2 mM EDTA. Then, the cells were centrifuged (1500 g, 30 min, room temperature) in a three-layer Percoll gradient (78%, 69%, and 52%) without braking. […] The purity of the isolated neutrophils was determined by May-Grunwald-Giemsa staining (40751ES02, Yea-sen). […]
The procedure of two-chamber migration assays was previously described (Zhuang et al., “Differential effects on lung and bone metastasis of breast cancer by Wnt signalling inhibitor DKK1,” Nat. Cell Biol. 19:1274-1285 (2017)). […] The migrated cells in the lower chamber were counted after 3 h. […]

[9] = tested on: pancreatic cancer cells KP4; assay: Mouse xenograft, pancreatic tumor cells by spleen injection (liver metastasis); type: in vivo; settings: nude mice, FIG. 12C
Procedure: A series of mouse xenograft studies are conducted by injecting liver and pancreatic tumor cells into nude mice by spleen injection. Then the mice are treated by brensocatib, and the growth of the tumors in liver is observed.

[10] = tested on: gastric cancer cells AGS; assay: NET-promoted tumor sphere formation, gastric cancer; type: cell-based; settings: neutrophil medium, CM with or without brensocatib, FIG. 11M
Procedure: as §1

[11] = tested on: bone-metastatic breast cancer cell SCP2; assay: Tumor sphere formation of bone-metastatic breast cancer cells in neutrophil medium; type: cell-based; settings: neutrophils cultured with cancer cell CM with or without brensocatib, FIG. 11E
Procedure: as §2

[12] = tested on: colon cancer cells SW480; assay: NET-promoted tumor sphere formation, colon cancer; type: cell-based; settings: neutrophil medium, CM with or without brensocatib, FIG. 11K
Procedure: as §1

CC(C)(C)C(=O)Oc1ccc(S(=O)(=O)Nc2ccccc2C(=O)NCC(=O)O)cc1 [Silvelestat]
IL-1β levels (secretion) of neutrophils [1]: reduces
migration of murine neutrophils [2]: significantly reduced

Cn1c(=O)oc2ccc(-c3ccc(C[C@@H](C#N)NC(=O)[C@@H]4CNCCCO4)cc3)cc21 [brensocatib, (2S)—N-{(1S)-1-cyano-2-[4-(3-methyl-2-oxo-2,3-dihydro-1,3-benzoxazol-5-yl)phenyl]ethyl}-1,4-oxazepane-2-carboxamide]
NET-promoted tumor sphere formation (in vitro tumor growth) [3]: inhibit in vitro tumor growth
NET-promoted tumor sphere formation (in vitro tumor growth) [4]: inhibit in vitro tumor growth
capability of drug-treated neutrophils to facilitate tumor cell growth (tumor sphere formation) [5]: significantly weakened
NET-promoted tumor sphere formation (in vitro tumor growth) [6]: inhibit in vitro tumor growth
tumor sphere formation [7]: suppressed
neutrophil recruitment [8]: significantly reduced
metastatic growth of pancreatic cancer cells KP4 in liver [9]: significantly inhibits
NET-promoted tumor sphere formation (in vitro tumor growth) [10]: inhibit in vitro tumor growth
capability of drug-treated neutrophils to facilitate tumor cell growth (tumor sphere formation) [11]: significantly weakened
NET-promoted tumor sphere formation (in vitro tumor growth) [12]: inhibit in vitro tumor growth
